Assay results published in patent US9770445B2, “Sulfoximine substituted 5-fluoro-N-(pyridin-2-yl)pyridin-2-amine derivatives and their use as CDK9 kinase inhibitors” (BAYER PHARMA AKTIENGESELLSCHAFT, priority 2013, dated 2017).

Columns and labels:
CDK2/CycE = target: T1, CDK2/CycE (Homo sapiens, UniProt P24941); assay: CDK2/CycE kinase assay (Method 2, TR-FRET); type: biochemical; conditions: Method 2, 10 μM ATP
T1 construct: GST; purchased ProQinase GmbH (Freiburg, Germany); host or cells: insect cells (Sf9)
Excerpt: 2. CDK2/CycE Kinase Assay:
CDK2/CycE-inhibitory activity of compounds of the present invention was quantified employing the CDK2/CycE TR-FRET assay as described in the following paragraphs:
Recombinant fusion proteins of GST and human CDK2 and of GST and human CycE, expressed in insect cells (Sf9) and purified by Glutathion-Sepharose affinity chromatography, were purchased from ProQinase GmbH (Freiburg, Germany). As substrate for the kinase reaction biotinylated peptide biotin-Ttds-YISPLKSPYKISEG (C-terminus in amid form) was used which can be purchased e.g. form the company JERINI Peptide Technologies (Berlin, Germany).
For the assay 50 nl of a 100 fold concentrated solution of the test compound in DMSO was pipetted into a black low volume 384 well microtiter plate (Greiner Bio-One, Frickenhausen, Germany), 2 μl of a solution of CDK2/CycE in aqueous assay buffer [50 mM Tris/HCl pH 8.0, 10 mM MgCl2, 1.0 mM dithiothreitol, 0.1 mM sodium ortho-vanadate, 0.01% (v/v) Nonidet-P40 (Sigma)] were added and the mixture was incubated for 15 min at 22° C. to allow pre-binding of the test compounds to the enzyme before the start of the kinase reaction. Then the kinase reaction was started by the addition of 3 μl of a solution of adenosine-tri-phosphate (ATP, 16.7 μM=>final conc. in the 5 μl assay volume is 10 μM) and substrate (1.25 μM=>final conc. in the 5 μl assay volume is 0.75 μM) in assay buffer and the resulting mixture was incubated for a reaction time of 25 min at 22° C. The concentration of CDK2/CycE was adjusted depending of the activity of the enzyme lot and was chosen appropriate to have the assay in the linear range, typical concentrations were in the range of 130 ng/mL. The reaction was stopped by the addition of 5 μl of a solution of TR-FRET detection reagents (0.2 μM streptavidine-XL665 [Cisbio Bioassays, Codolet, France] and 1 nM anti-RB(pSer807/pSer811)-antibody from BD Pharmingen [#558389] and 1.2 nM LANCE EU-W1024 labeled anti-mouse IgG antibody [Perkin-Elmer, product no. AD0077]) in an aqueous EDTA-solution (100 mM EDTA, 0.2% (w/v) bovine serum albumin in 100 mM HEPES/NaOH pH 7.0).
The resulting mixture was incubated 1 h at 22° C. to allow the formation of complex between the phosphorylated biotinylated peptide and the detection reagents. Subsequently the amount of phosphorylated substrate was evaluated by measurement of the resonance energy transfer from the Eu-chelate to the streptavidine-XL. Therefore, the fluorescence emissions at 620 nm and 665 nm after excitation at 350 nm was measured in a TR-FRET reader, e.g. a Rubystar (BMG Labtechnologies, Offenburg, Germany) or a Viewlux (Perkin-Elmer). The ratio of the emissions at 665 nm and at […] was taken as the measure for the amount of phosphorylated substrate. The data were normalised (enzyme reaction without inhibitor=0% inhibition, all other assay components but no enzyme=100% inhibition).

[1] = system: HeLa, human cervical tumour cells; assay: Proliferation assay, HeLa (crystal violet); type: cell-based; conditions: 96 h, 4 days, read-out: Inhibition of HeLa cell proliferation
Method: (§1) Cultivated tumour cells (HeLa, human cervical tumour cells, ATCC CCL-2; NCI-H460, human non-small cell lung carcinoma cells, ATCC HTB-177; A2780, human ovarian carcinoma cells, ECACC #93112519; DU 145, hormone-independent human prostate carcinoma cells, ATCC HTB-81; HeLa-MaTu-ADR, multidrug-resistant human cervical carcinoma cells, EPO-GmbH Berlin; Caco-2, human colorectal carcinoma cells, ATCC HTB-37; B16F10, mouse melanoma cells, ATCC CRL-6475) were plated at a density of 5,000 cells/well (DU145, HeLa-MaTu-ADR), 3,000 cells/well (NCI-H460, HeLa), 2,500 cells/well (A2780), 1,500 cells/well (Caco-2), or 1,000 cells/well (B16F10) in a 96-well multititer plate in 200 μL of their respective growth medium supplemented 10% fetal calf serum. After 24 hours, the cells of one plate (zero-point plate) were stained with crystal violet (see below), while the medium of the other plates was replaced by fresh culture medium (200 μl), to which the test substances were added in various concentrations (0 μM, as well as in the range of 0.001-10 μM; the final concentration of the solvent dimethyl sulfoxide was 0.5%). The cells were incubated for 4 days in the presence of test substances. Cell proliferation was determined by staining the cells with crystal violet: the cells were fixed by adding 20 μl/measuring point of an 11% glutaric aldehyde solution for 15 minutes at room temperature. After three washing cycles of the fixed cells with water, the plates were dried at room temperature. The cells were stained by adding 100 μl/measuring point of a 0.1% crystal violet solution (pH 3.0). After three washing cycles of the stained cells with water, the plates were dried at room temperature. The dye was dissolved by adding 100 μl/measuring point of a 10% acetic acid solution. The extinction was determined by photometry at a wavelength of 595 nm. The change of cell number, in percent, was calculated by normalization of the measured values to the extinction values of the zero-point plate (=0%) and the extinction of the untreated (0 μm) cells (=100%). The IC50 values (inhibitory concentration at 50% of maximal effect) were determined by means of a 4 parameter fit.

[2] = system: HeLa-MaTu-ADR, multidrug-resistant human cervical carcinoma cells; assay: Proliferation assay, HeLa-MaTu-ADR (crystal violet); type: cell-based; conditions: 96 h, 4 days, read-out: Inhibition of HeLa-MaTu-ADR cell proliferation
Method: as §1

[3] = system: NCI-H460, human non-small cell lung carcinoma cells; assay: Proliferation assay, NCI-H460 (crystal violet); type: cell-based; conditions: 96 h, NCI-H460, 4 days, read-out: Inhibition of NCI-H460 cell proliferation
Method: as §1

[4] = system: DU 145, hormone-independent human prostate carcinoma cells; assay: Proliferation assay, DU145 (crystal violet); type: cell-based; conditions: DU-145, 96 h, DU145, 4 days, read-out: Inhibition of DU145 cell proliferation
Method: as §1

[5] = system: Caco-2, human colorectal carcinoma cells; assay: Proliferation assay, Caco-2 (crystal violet); type: cell-based; conditions: 96 h, Caco-2, 4 days, read-out: Inhibition of Caco-2 cell proliferation
Method: as §1

[6] = system: B16F10, mouse melanoma cells; assay: Proliferation assay, B16F10 (crystal violet); type: cell-based; conditions: B16-F10, 96 h, B16F10, 4 days, read-out: Inhibition of B16F10 cell proliferation
Method: as §1

CS(=N)(=O)Cc1cc(F)nc(Nc2cc(-c3ccc(F)c4ccoc34)c(F)cn2)c1 (racemic) [Example 1, (rac)-5-Fluoro-4-(4-fluoro-1-benzofuran-7-yl)-N-{6-fluoro-4-[(S-methylsulfonimidoyl)methyl]pyridin-2-yl}pyridin-2-amine]
IC50 (CDK2/CycE): 42 nM
IC50 [1]: 30 nM
IC50 [2]: 30 nM
IC50 [3]: 36 nM
IC50 [4]: 33 nM
IC50 [5]: 34 nM
IC50 [6]: 41 nM

CS(=O)(Cc1cc(F)nc(Nc2cc(-c3ccc(F)c4ccoc34)c(F)cn2)c1)=NC(=O)C(F)(F)F (racemic) [Example 2, (rac)-2,2,2-Trifluoro-N-{[(2-fluoro-6-{[5-fluoro-4-(4-fluoro-1-benzofuran-7-yl)pyridin-2-yl]amino}pyridin-4-yl)methyl](methyl)oxido-λ^6-sulfanylidene}acetamide]
IC50 (CDK2/CycE): 380 nM
IC50 [1]: 31 nM
IC50 [2]: 30 nM
IC50 [3]: 32 nM
IC50 [4]: 32 nM
IC50 [5]: 35 nM
IC50 [6]: 42 nM

CS(=N)(=O)Cc1cc(Nc2cc(-c3ccc(F)c4ccoc34)c(F)cn2)nc(C(F)(F)F)c1 (racemic) [Example 3, (rac)-5-Fluoro-4-(4-fluoro-1-benzofuran-7-yl)-N-{4-[(S-methylsulfonimidoyl)methyl]-6-(trifluoromethyl)pyridin-2-yl}pyridin-2-amine]
IC50 (CDK2/CycE): 21 nM
IC50 [1]: 6 nM
IC50 [2]: 11 nM
IC50 [3]: 21 nM
IC50 [4]: 15 nM
IC50 [5]: 19 nM
IC50 [6]: 19 nM

CS(=O)(Cc1cc(Nc2cc(-c3ccc(F)c4ccoc34)c(F)cn2)nc(C(F)(F)F)c1)=NC(=O)C(F)(F)F (racemic) [Example 4, (rac)-2,2,2-Trifluoro-N-[{[2-{[5-fluoro-4-(4-fluoro-1-benzofuran-7-yl)pyridin-2-yl]amino}-6-(trifluoromethyl)pyridin-4-yl]methyl}(methyl)oxido-λ^6-sulfanylidene]acetamide]
IC50 (CDK2/CycE): 110 nM
IC50 [1]: 31 nM
IC50 [2]: 30 nM
IC50 [3]: 36 nM
IC50 [4]: 37 nM
IC50 [5]: 40 nM
IC50 [6]: 44 nM

CS(=N)(=O)Cc1ccnc(Nc2cc(-c3ccc(F)c4ccoc34)c(F)cn2)c1 (racemic) [Example 5, (rac)-5-Fluoro-4-(4-fluoro-1-benzofuran-7-yl)-N-{4-[(S-methylsulfonimidoyl)methyl]pyridin-2-yl}pyridin-2-amine]
IC50 (CDK2/CycE): 130 nM
IC50 [1]: 31 nM
IC50 [2]: 42 nM
IC50 [3]: 120 nM
IC50 [4]: 55 nM
IC50 [5]: 46 nM
IC50 [6]: 53 nM

CS(=O)(Cc1ccnc(Nc2cc(-c3ccc(F)c4ccoc34)c(F)cn2)c1)=NC(=O)C(F)(F)F (racemic) [Example 6, (rac)-2,2,2-Trifluoro-N-{[(2-{[5-fluoro-4-(4-fluoro-1-benzofuran-7-yl)pyridin-2-yl]amino}pyridin-4-yl)methyl](methyl)oxido-λ^6-sulfanylidene}acetamide]
IC50 (CDK2/CycE): 540 nM
IC50 [1]: 42 nM
IC50 [2]: 52 nM
IC50 [3]: 46 nM
IC50 [4]: 42 nM
IC50 [5]: 58 nM
IC50 [6]: 88 nM

Cc1cc(CS(C)(=N)=O)cc(Nc2cc(-c3ccc(F)c4ccoc34)c(F)cn2)n1 (racemic) [Example 7, (rac)-5-Fluoro-4-(4-fluoro-1-benzofuran-7-yl)-N-{6-methyl-4-[(S-methylsulfonimidoyl)-methyl]pyridin-2-yl}pyridin-2-amine]
IC50 (CDK2/CycE): 39 nM
IC50 [1]: 11 nM
IC50 [2]: 9.1 nM
IC50 [3]: 33 nM
IC50 [4]: 14 nM
IC50 [5]: 14 nM
IC50 [6]: 17 nM

CS(=O)(Cc1ccnc(Nc2cc(-c3ccc(F)c4ccoc34)c(F)cn2)c1)=NC#N (racemic) [Example 9, (rac)-{[(2-{[5-fluoro-4-(4-fluoro-1-benzofuran-7-yl)pyridin-2-yl]amino}pyridin-4-yl)methyl](methyl)oxido-λ^6-sulfanylidene}cyanamide]
IC50 (CDK2/CycE): 146 nM

CC(=O)N=S(C)(=O)Cc1ccnc(Nc2cc(-c3ccc(F)c4ccoc34)c(F)cn2)c1 (racemic) [Example 10, (rac)-N-{[(2-{[5-fluoro-4-(4-fluoro-1-benzofuran-7-yl)pyridin-2-yl]amino}pyridin-4-yl)methyl](methyl)oxido-λ^6-sulfanylidene}acetamide]
IC50 (CDK2/CycE): 166 nM

CCOC(=O)N=S(C)(=O)Cc1ccnc(Nc2cc(-c3ccc(F)c4ccoc34)c(F)cn2)c1 (racemic) [Example 11, (rac)-Ethyl {[(2-{[5-fluoro-4-(4-fluoro-1-benzofuran-7-yl)pyridin-2-yl]amino}pyridin-4-yl)methyl](methyl)oxido-λ^6-sulfanylidene}carbamate]
IC50 (CDK2/CycE): 138 nM

CCNC(=O)N=S(C)(=O)Cc1ccnc(Nc2cc(-c3ccc(F)c4ccoc34)c(F)cn2)c1 (racemic) [Example 12, (rac)-1-Ethyl-3-{[(2-{[5-fluoro-4-(4-fluoro-1-benzofuran-7-yl)pyridin-2-yl]amino}pyridin-4-yl)methyl](methyl)oxido-λ^6-sulfanylidene}urea]
IC50 (CDK2/CycE): 113 nM

CS(=O)(Cc1ccnc(Nc2cc(-c3ccc(F)c4ccoc34)c(F)cn2)c1)=NC(=O)NCC(F)(F)F (racemic) [Example 13, (rac)-1-{[(2-{[5-Fluoro-4-(4-fluoro-1-benzofuran-7-yl)pyridin-2-yl]amino}pyridin-4-yl)methyl](methyl)oxido-λ^6-sulfanylidene}-3-(2,2,2-trifluoroethyl)urea]
IC50 (CDK2/CycE): 280 nM
